The target in series [1] is T1, rat cortex histamine H1 receptor (Rattus norvegicus, UniProt P31390).
T1 construct: the samples containing 0.5 mg of cortex membrane protein; from tissue; host or cells: cerebral cortex membranes of male Sprague-Dawley rats
As to the kind of experiment: Affinity towards the histamine H1 receptor ([3H]mepyramine competitive binding). As to conditions: cologarithm of Ki, mean ± deviation (n=2); [3H]mepyramine 4.5×10^−9 mole/l, rat cortex membranes. The protocol:
Cerebral cortexes from male Sprague-Dawley rats are homogenized in 2 ml per cortex of a 20 mM Tris-HCl buffer (pH 7.4) containing 250 mM sucrose. The homogenates are centrifuged at 30,000 g for 30 minutes at 4° C. and the centrifugation pellets are resuspended in the same fresh buffer and preserved in liquid nitrogen. […] The bound [^3H]mepyramine is separated from the free radioligand by rapid filtration of the sample through a Whatman GF/C filter, previously impregnated for at least 2 hours with a 0.1% solution of polyethyleneimine, in order to reduce the possibility of non-specific binding of the radioligand with other proteins. […] The radioactivity thereof is then measured using a β particle Tri-carb 1090 scintillation counter (Camberra-Packard, Belgium). Non-specific binding has been estimated in the presence of a 10 μM aqueous solution of cetirizine and represents 30% of the total binding. […] DE LEAN et al., Mol. Pharmacol., 21 (1982), 5-16) and their inhibition constants (Ki) are calculated by means of the CHENG and PRUSOFF equation (Y. C. CHENG and W. H. PRUSOFF, Biochem. Pharmacol., 22 (1973), 3099-3108). Table III below gives the values of pKi (cologarithm of Ki) calculated from Ki (mean value±deviation with respect to the mean (n=2)), for the compounds tested.

The test system of series [2] is isolated guinea pig trachea. Briefly: Peripheral antihistaminic properties: inhibition of histamine-induced contraction of isolated guinea pig trachea. The following applies: mean ± standard deviation, histamine-contracted guinea pig trachea; for pA2: competitive inhibition; for pD2′: non-competitive inhibition. The protocol:
Tracheas of Dunkin-Hartley guinea pigs of both sexes (weight: 250-500 g) are excised and cut into four fragments of three segments of cartilage each. These fragments are immersed in a Krebs-Heinseleit solution at 37° C. containing 10^−7 mole/l of atropine and 10^−5 mole/l of indomethacin and are stretched with a weight of 1 g. The solution is aerated with a current of oxygen containing 5% carbon dioxide. Each change in tension, is recorded with an isometric force indicator K 30 (from Hugo Sachs Elektronik) coupled to an amplifier and a Sanborn 7700 recorder (from Hewlett Packard). The preparation (i.e. trachea fragment) so obtained is allowed to stabilize for one hour during which the base line for the tension is readjusted if necessary.
After washing and stabilization, a cumulative curve showing the effects of histamine, as a function of its concentration (10^−6, 10^−5 and 10^−4 mole/l) is plotted as a control.
For the same preparation, four further cumulative curves showing the effects of histamine as a function of its concentration are then recorded at four increasing concentrations of each compound to be tested.
The compounds to be tested are incorporated in the medium five minutes before the histamine. Between each measurement, the preparations are washed at least four times with an interval of five minutes between each washing. Each compound is tested on at least 6 trachea fragments. When the last curve is plotted, additional concentrations of 3.2×10^−4 and 10^−3 mole/l of histamine are added in order to determine whether the antagonism is competitive or not.

Series [3] relates to mice. Briefly: Toxicity: lethal dose in mice after intraperitoneal injection. It counts as in vivo. As to conditions: dose causing death in 2 out of 3 mice.
Series [4] deals with cutaneous reaction induced by histamine. As to the kind of experiment: Inhibition of the cutaneous reaction induced by histamine in dogs. It is filed as in vivo, dog. The following applies: for Area of wheals: nine Beagle dogs, mean ± SD; for Wheal area as percent of reference: with respect to reference area (100%); for inhibition at 0.15 mg/kg: Canis lupus familiaris. The protocol:
The dog is considered, among the animal species, to be the species having a sensitivity to histamine relatively close to that of man.
In this test, nine Beagle dogs are used, having an average weight of 12.6 kg and of about two years of age and of which the abdomens have been locally shaved. 50 μl of a 0.9% aqueous solution of sodium chloride, containing 10 μg/ml of histamine, is injected intradermally into the shaved area. Simultaneously, a solution of Evans blue dye (60 mg/ml in a 0.9% aqueous solution of sodium chloride), is administered by intravenous injection to each dog at a dose of 0.1 ml/kg. An allergic reaction develops at the intradermal injection site and there appears a wheal, the area of which is measured exactly 30 minutes after the two injections. This area is taken as the reference. area (100%)
The compound to be tested is then administered orally, at a dose of 0.15 mg/kg (0.32×10^−6 mole/kg). 0.5, 1.5, 3, 6, 9, 12, 24 and 32 hours after administration of the compound to be tested, new wheals are induced at different abdominal locations by injecting histamine. Each time, the area of the induced wheal is measured 30 minutes after the injection of histamine.
The antihistaminic activity of a compound on the cutaneous allergic reaction is determined by measuring the reduction in the area of the induced wheals, following administration of the compound, with respect to the area of the reference wheal, and then expressed in percent.

Where [5] appears, read: 0.5 hours after 0.15 mg/kg oral.
Where [6] appears, read: 1.5 hours after 0.15 mg/kg oral.

Structures are written as SMILES. Structures can show the parent of a compound that is named as a salt. Where two headings read alike, the source gives them in different places.

T1 sequence (P31390 whole entry): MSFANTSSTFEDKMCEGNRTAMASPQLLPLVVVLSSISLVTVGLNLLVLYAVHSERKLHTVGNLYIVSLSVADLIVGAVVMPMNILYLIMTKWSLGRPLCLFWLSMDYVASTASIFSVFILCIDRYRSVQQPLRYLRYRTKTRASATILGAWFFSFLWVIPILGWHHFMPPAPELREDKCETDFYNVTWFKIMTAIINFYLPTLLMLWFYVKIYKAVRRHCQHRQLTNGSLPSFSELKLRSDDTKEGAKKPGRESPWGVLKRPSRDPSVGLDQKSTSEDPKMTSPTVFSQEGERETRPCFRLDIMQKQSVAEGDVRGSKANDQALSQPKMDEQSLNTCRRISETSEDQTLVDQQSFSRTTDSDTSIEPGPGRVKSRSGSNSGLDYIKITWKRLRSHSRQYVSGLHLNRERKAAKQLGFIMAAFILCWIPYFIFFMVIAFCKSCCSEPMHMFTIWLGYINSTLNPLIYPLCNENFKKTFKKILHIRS

In series [1], `COC(=O)COCCN1CCN(C(c2ccccc2)c2ccc(Cl)cc2)CC1` (single isomer, unassigned) [N, dextrorotatory dimaleate of methyl 2-[2-[4-[(4-chlorophenyl)phenylmethyl]-1-piperazinyl]ethoxy]acetate] had a Ki of 79.4 nM.

Compound `NC(=O)COCCN1CCN(C(c2ccccc2)c2ccc(Cl)cc2)CC1` (single isomer, unassigned; (+)) [Compound L, (+)-2-[2-[4-[(4-chlorophenyl)phenylmethyl]-1-piperazinyl]ethoxy]acetamide] had a pA2 in series [2] of 6.4 ± 0.2. In series [1], this compound showed a Ki of 158 nM. In series [3], this compound displayed a Lethal dose of 0.001 mol/kg.

For `OCCOCCOCCN1CCN(C(c2ccccc2)c2ccc(Cl)cc2)CC1` (single isomer, unassigned) [J, dextrorotatory dihydrochloride of 2-[2-[2-[4-[(4-chlorophenyl)phenylmethyl]-1-piperazinyl]ethoxy]ethoxy]ethanol], in series [2], the “pD2′” value was found to be 6.0 ± 0.3. The compound also gave an inhibitory constant (Ki) in series [1] of 2.51 nM. Further, the Lethal dose in series [3] came to 0.0001 mol/kg.

In the case of `NC(=O)COCCN1CCN(C(c2ccccc2)c2ccc(Cl)cc2)CC1` (single isomer, unassigned; (-)) [K, (−)-2-[2-[4-[(4-chlorophenyl)phenylmethyl]-1-piperazinyl]ethoxy]acetamide], the “pD2′” value in series [2] worked out at 6.3 ± 0.2. In series [1], the inhibition constant Ki is 2.51 nM. This compound also had a Lethal dose in series [3] of 0.0003 mol/kg.

Turning to `CC(C)(C)c1ccc(CN2CCN(C(c3ccccc3)c3ccc(Cl)cc3)CC2)cc1` (single isomer, unassigned) [E, levorotatory dihydrochloride of 1-[(4-tert-butylphenyl)methyl]-4-[(4-chlorophenyl)phenylmethyl]piperazine], the Ki in series [1] is 1260 nM. The same compound registered a Lethal dose in series [3] of 0.001 mol/kg.

The compound `O=C(O)COCCN1CCN(C(c2ccccc2)c2ccc(Cl)cc2)CC1` (single isomer, unassigned) [O, levorotatory dihydrochloride of 2-[2-[4-[(4-chlorophenyl)phenylmethyl]-1-piperazinyl]ethoxy]acetic acid] returned a pA2 in series [2] of 6.6 ± 0.3. Also, the affinity in series [1], expressed as Ki, was 39.8 nM.

Turning to `OCCOCCN1CCN(C(c2ccccc2)c2ccc(Cl)cc2)CC1` (single isomer, unassigned) [H, dextrorotatory dihydrochloride of 2-[2-[4-[(4-chlorophenyl)phenylmethyl]-1-piperazinyl]ethoxy]ethanol], the “pD2′” value in series [2] was determined as 6.7 ± 0.1. Also, the Ki in series [1] is 2 nM. The compound further gave a Lethal dose in series [3] of 0.0006 mol/kg.

Turning to `O=C(O)COCCN1CCN(C(c2ccccc2)c2ccc(Cl)cc2)CC1` (single isomer, unassigned) [P, dextrorotatory dihydrochloride of 2-[2-[4-[(4-chlorophenyl)phenylmethyl]-1-piperazinyl]ethoxy]acetic acid], in series [2], the “pD2′” value is on record as 6.3 ± 0.2. Moreover, the Area of wheals came out at 65 ± 10 mm^2 in series [4] (setting [5]); 44 ± 12 mm^2 in series [4] (setting [6]); 33 ± 10 mm^2 in series [4] (3 hours after 0.15 mg/kg oral); 41 ± 13 mm^2 in series [4] (6 hours after 0.15 mg/kg oral); 41 ± 10 mm^2 in series [4] (9 hours after 0.15 mg/kg oral); 41 ± 10 mm^2 in series [4] (12 hours after 0.15 mg/kg oral). Besides, the Area of wheals in series [4] (24 hours after 0.15 mg/kg oral) is on record as 45 ± 5 mm^2; in series [4] (32 hours after 0.15 mg/kg oral), 51 ± 5 mm^2. Also, the “Wheal area as percent of reference” value came out at 85% in series [4] (setting [5]); 58% in series [4] (setting [6]); 43% in series [4] (3 hours after 0.15 mg/kg oral); 54% in series [4] (6 hours after 0.15 mg/kg oral); 54% in series [4] (9 hours after 0.15 mg/kg oral); 54% in series [4] (12 hours after 0.15 mg/kg oral). Further, the “Wheal area as percent of reference” value in series [4] (24 hours after 0.15 mg/kg oral) is 59%; in series [4] (32 hours after 0.15 mg/kg oral), 67%. For the same compound, the “reduction in the area of the wheals” value in series [4] (30 minutes after administration, 0.15 mg/kg oral, dogs) turned out to be 15%. The inhibition at 0.15 mg/kg in series [4] (3 h, after three hours, 0.15 mg/kg oral, dogs, read-out: Maximum inhibition (of wheal area)) was 57%; in series [4] (after 32 hours, 0.15 mg/kg oral, dogs, read-out: inhibition (of wheal area), statistically significant) it was 33%. Moreover, the Ki in series [1] was 6.31 nM.

`CC(C)(C)c1ccc(CN2CCN(C(c3ccccc3)c3ccc(Cl)cc3)CC2)cc1` (single isomer, unassigned) [F, dextrorotatory dihydrochloride of 1-[(4-tert-butylphenyl)methyl]-4-[(4-chlorophenyl)phenylmethyl]piperazine]: in series [1], the inhibitory constant (Ki) is 631 nM. This compound also returned a Lethal dose in series [3] of over 0.001 mol/kg.

For `Cc1cccc(CN2CCN(C(c3ccccc3)c3ccc(Cl)cc3)CC2)c1` (single isomer, unassigned) [D, dextrorotatory dihydrochloride of 1-[(4-chlorophenyl)phenylmethyl]-4-[(3-methylphenyl)methyl]piperazine], the affinity in series [1], expressed as Ki, was 63.1 nM. Also, the Lethal dose in series [3] was over 0.001 mol/kg.

As for `Clc1ccc(C(c2ccccc2)N2CCNCC2)cc1` (single isomer, unassigned; (-)) [A, (−)-1-[(4-chlorophenyl)phenylmethyl]piperazine], the pA2 in series [2] was found to be 5.7 ± 0.4.

As to `COC(=O)COCCN1CCN(C(c2ccccc2)c2ccc(Cl)cc2)CC1` (single isomer, unassigned) [M, levorotatory dimaleate of methyl 2-[2-[4-[(4-chlorophenyl)phenylmethyl]-1-piperazinyl]ethoxy]acetate], the inhibition constant (Ki) in series [1] was 3.16 nM.

Regarding `Cc1cccc(CN2CCN(C(c3ccccc3)c3ccc(Cl)cc3)CC2)c1` (single isomer, unassigned) [C, levorotatory dihydrochloride of 1-[(4-chlorophenyl)phenylmethyl]-4-[(3-methylphenyl)methyl]piperazine], the Ki in series [1] is 631 nM. For the same compound, the Lethal dose in series [3] was over 0.001 mol/kg.

In the case of `Clc1ccc(C(c2ccccc2)N2CCNCC2)cc1` (single isomer, unassigned; (+)) [B, (+)-1-[(4-chlorophenyl)phenylmethyl]piperazine], the pA2 in series [2] is 5.0 ± 0.1.

Broadly, the Ki is a measure of affinity in units of concentration, obtained from inhibition or displacement. A higher Ki goes with lower affinity. As a reminder, the pA2 is a measure of antagonist potency on a negative log scale. A higher pA2 goes with a more potent antagonist. For orientation: inhibition means the relative decrease from the control value, in per cent.
